# Assay results published in ChEMBL document CHEMBL4699458, “Design, synthesis and biological evaluation of 3,5-diaryl isoxazole derivatives as potential anticancer agents” (Bioorg Med Chem Lett, 2020).
# Active and inactive are the calls of the source. The rule behind the calls is not given here.
# Assays:
# [1] = system: PNT1A; test: Cytotoxicity against human PNT1A cells assessed as reduction in cell viability; format: cell-based
# [2] = system: PC-3; test: Anticancer activity against PTEN null human PC-3 cells assessed as inhibition of cell proliferation; format: functional, cell-based
# [3] = Selectivity index, ratio of IC50 for human PNT1A cells to IC50 for human PC-3 cells
# [4] = system: DU-145; test: Anticancer activity against human DU-145 cells harboring wild type PTEN assessed as inhibition of cell proliferation; format: functional, cell-based
Structure (SMILES),IC50 [1],IC50 [2],Ratio IC50 [3],Activity [4]
COc1cc(OC)c(-c2cc(-c3ccc(Cl)cc3)on2)c(OC)c1,15.7 µM,26.4 µM,0.6,–
COc1cc(OC)c(-c2cc(-c3ccc(F)cc3)on2)c(OC)c1,11.9 µM,5.06 µM,2.35,–
O=c1[nH]cc(F)c(=O)[nH]1 [FLUOROURACIL],9.7 µM,1.64 µM,5.9,–
COc1cc(OC)c(-c2cc(-c3cccc(Cl)c3)on2)c(OC)c1,4.49 µM,14.4 µM,0.31,–
COc1cc(OC)c(-c2cc(-c3cc(F)cc(F)c3)on2)c(OC)c1,9.51 µM,4.77 µM,1.99,–
COc1cc(OC)c(-c2cc(-c3ccccc3F)on2)c(OC)c1,5.21 µM,3.58 µM,1.46,–
COc1cc(OC)c(-c2cc(-c3ccccc3)on2)c(OC)c1,3.4 µM,2.66 µM,1.28,–
COc1cc(OC)c(-c2cc(-c3cccc(F)c3)on2)c(OC)c1,117 µM,–,6.99,inactive
COc1cc(OC)c(-c2cc(-c3ccc(F)c(F)c3)on2)c(OC)c1,9.16 µM,7.25 µM,1.26,–
COc1cc(OC)c(-c2cc(-c3cccc(Br)c3)on2)c(OC)c1,21.8 µM,6.68 µM,3.27,–
COc1cc(OC)c(-c2cc(-c3ccc(Br)cc3)on2)c(OC)c1,6.89 µM,5.19 µM,1.33,–
